The values below are quoted from earlier work in patent US20240000717A1, “DRY POWDER ANTIVIRAL COMPOSITIONS AND THEIR USE FOR TREATING VIRAL INFECTION” (priority 2020, published 2024).

Each structure is given as a SMILES string.

In the data set the test system is hospitalized COVID-19 patients. To be noted: Pan et al., MedRxiv 2020.

`CCC(CC)COC(=O)[C@H](C)N[P@](=O)(OC[C@H]1O[C@@](C#N)(c2ccc3c(N)ncnn23)[C@H](O)[C@@H]1O)Oc1ccccc1` [remdesivir, 2-ethylbutyl ((S)-(((2R,3S,4R,5R)-5-(4-aminopyrrolo[2,1-f][1,2,4]triazin-7-yl)-5-cyano-3,4-dihydroxytetrahydrofuran-2-yl)methoxy)(phenoxy)phosphoryl)-L-alaninate]: the “effect on 28-day mortality” value is recorded as “little or no effect”.
